Entries after “also recorded” stand apart in the source; their conditions may differ.
Tests used:
transcobalamin II (TCII) = assay: Gel-shift (gel filtration) assay of radiolabeled cyanocobalamin derivatives with transport protein TC II; format: binding, rabbit; conditions: for Binding to TCII (in words): gel shift assay; for TC II reactivity: radioactive labeled derivative; for Gel filtration peak of the derivative mixed with TCII: Superdex 75 column, free derivative elutes at 1.5 kDa
Experimental: To test the binding affinity of cobalamin (Cbl) derivatives to TCII, an in vitro test is carried out with partially purified TCII obtained from the blood of rabbits. Recombinant TCII produced with an E. coli expression system can also be used as a substrate.
TC II is purified by affinity chromatography on a cyanocobalamin-agarose matrix (Sigma), The gel (5 ml) is first washed with 200 ml 50 mM Tris/1 M NaCl, pH 8.0, afterwards with 200 ml 0.1 M glycine/0.1 M glucose/1 M NaCl pH 10, and again with 200 ml 50 mM Tris/1 M NaCl. […] Bound TC II is eluted with 20 ml 4.0 Mguanidine HCl/50 mM Tris pH 8.0, and in a second step with 7.5 M guanidine HCl/50 mM Tris pH 8.0. Most of the bound TC II elutes already with 4 M guanidine HCl. Probes are dialyzed extensively against H2O for 2 days at 4° C. Typical yields are 5-30 nmol/l which translates into 7.5-10 μg of TC II (MW: 50 kDa) per rabbit.
Transcobalamin II cDNA is expressed in E. coli strain FA113, a K12 derivative with double knock-out in trxB and gor genes, where the cytoplasm forms an oxidizing environment and allows disulfide formation. The transcobalamin II protein contains a PreScission protease site followed by an N-terminal histidine tag. The protein is isolated from soluble fractions of E. coli extracts using nickel chelating sepharose. Cyanocobalamin is removed from the transcobalamin II bound to the chelating column with 8 M urea, and the transcobalamin II is afterwards released by imidazole. In some of the preparations, the His-tag is removed by a specific protease.
(§1) The interaction of radiolabeled (^57Co, ^99mTc, ^188Re, ^111In) cyanocobalamin derivatives is measured by gel-shift assay. Radiolabeled cyanocobalamin (0.05 ng to 1 ng) is allowed to react with an excess of transport proteins for 15 min at room temperature. This mixture is applied to a gel-filtration column (Superdex75, Amersham Biosciencies) in the running buffer PBS and 0.1% Tween 20. Biologically active cyanocobalamin, which binds to transport proteins, shifts from a molecular weight of about 1.4 kDa to 40-70 kDa, depending on the transport protein. Titration of the binding capacity of the transport proteins is done with ^57Co-cyanocobalamin (ICN Biomedicals GmbH, Germany; 10 μCi/50 ng).

[1] = Biodistribution of radiolabeled cyanocobalamin derivatives in tumor bearing mice; format: in vivo, balb/c mice; conditions: for Tissue distribution: Blood / Tissue distribution: Kidney / Tissue distribution: Tumor / Tissue distribution: Liver: 24 h after i.v. injection of radioactive labeled derivative, tumor bearing mice (melanoma B16-F10), vitamin-free diet, figures use percent of injected radioactivity per gram of tissue; for Tissue distribution: Liver: in %ID/g; for Accumulation in tumor relative to blood / Accumulation in tumor relative to kidney and liver: from Table 1, 24 h after i.v. injection in mice
Experimental: For in vivo studies and for binding studies to the transport vectors, very high specific activity was demanded. Therefore, 100 μl of the labeled solution were injected to an analytical HPLC system to separate the hot from the cold vitamin derivative. The eluate fraction with the highest gamma activity (ca. 300 μl) was diluted with normal saline to a concentration of 10 μCi per animal before i.v. injection. Separation condition were: acetate buffer, XTerra RP8 column, gradient: 0% methanol (0 min), 30% methanol (15 min), 100% methanol (25 min) for the b and d-derivatives, and the TEAP system as described by Schibli et al. (Bioconjugate Chem. 2000, 343-351) for the other compounds.
For biodistribution studies with ^57Co-cyanocobalamin, 0.2 μCi/1 ng of the radiolabeled cyanocobalamin is mixed with 180 μl normal saline and injected i.v. in tumor bearing balb/c mice (syngeneic mouse melanoma B16-F10). After a specified time (5 min to 24 h), animals are sacrificed, the organs weighted and counted on a gamma counter. For biodistribution studies with ^99mTc-labeled cyanocobalamin, 10 μCi/0.5 ng of the radiolabelled cyanocobalamin is mixed with normal saline and used as before. For biodistribution with ^111In-labeled cyanocobalamin, 2 μCi/5 ng of the radiolabeled cyanocobalamin is mixed with normal saline and used as before. To study the effect of Vitamin B12 deficient food, the biodistribution of labeled cyanocobalamin is compared in mice fed with normal food with the biodistribution in mice fed with vitamin B12 deficient food for a period of 2 weeks.

[2] = target: T1, transcobalamin I (TC I; haptocorrin) (Homo sapiens, UniProt P20061); assay: Gel-shift (gel filtration) assay of radiolabeled cyanocobalamin derivatives with transport protein TC I; format: binding; conditions: Superdex 75 column; free derivative elutes at 1.5 kDa
T1 construct: As a source of transcobalamin I, saliva of vegetarian human subjects is used; from tissue; host or cells: human saliva (centrifuged, diluted 1:1 with PBS, sterile filtered)
T1 sequence (P20061 24-433): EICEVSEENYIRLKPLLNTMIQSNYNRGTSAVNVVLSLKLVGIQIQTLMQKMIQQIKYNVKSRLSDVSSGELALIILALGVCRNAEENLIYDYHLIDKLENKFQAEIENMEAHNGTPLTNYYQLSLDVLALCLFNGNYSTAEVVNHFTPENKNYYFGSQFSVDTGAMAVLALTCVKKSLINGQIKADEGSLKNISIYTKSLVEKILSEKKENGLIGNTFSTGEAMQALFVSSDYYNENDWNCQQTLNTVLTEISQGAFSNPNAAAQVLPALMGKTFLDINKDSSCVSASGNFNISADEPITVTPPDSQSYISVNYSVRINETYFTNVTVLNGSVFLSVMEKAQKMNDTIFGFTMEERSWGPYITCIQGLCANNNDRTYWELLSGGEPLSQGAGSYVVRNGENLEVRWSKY
Experimental: As a source of transcobalamin I, saliva of vegetarian human subjects is used. Saliva is centrifuged at 20'000 rpm 20 min at 4° C., mixed 1:1 with PBS and sterile filtered. The binding capacity of transcobalamin I is usually 10 ng/ml.
as §1

Row | Substance | Binding to TCII (in words) (transcobalamin II (TCII)) | TC II reactivity (transcobalamin II (TCII)) | Tissue distribution: Blood [1] | Tissue distribution: Kidney [1] | Tissue distribution: Tumor [1] | Tissue distribution: Liver [1] | Accumulation in tumor relative to blood [1] | Accumulation in tumor relative to kidney and liver [1] | Gel filtration peak of the derivative mixed with TCII (transcobalamin II (TCII)) | Gel filtration peak of the derivative mixed with TCI [2]
1 | Cyanocobalamin-5′-phosphocolamin-His-OMe [Example 25] | bind to TCII | + (they bind to TCII) | 0.18 %ID/g | 116 %ID/g | 3.16 %ID/g | 20.70 |  |  |  | 
2 | Cyanocobalamin-b-butyl-PAMA-OEt [Example 12] | TCII non-binders | − | 0.04 %ID/g | 1.08 %ID/g | 6.13 %ID/g | 0.94 | five times or more than in blood | at least half the amount found in the critical organs kidney and liver |  | 
3 | Cyanocobalamin-b-butyl-PAPAcet [Example 5] | does bind to TCII | + (they bind to TCII) | 2.3 %ID/g | 14.1 %ID/g | 7.9 %ID/g | 9.40 |  |  | 60 kDa | 44 kDa
4 | Cyanocobalamin-b-butyl-aminocarboxymethyl-His-OMe [Example 6] | bind to TCII | + (they bind to TCII) |  |  |  |  |  |  |  | 
5 | Cyanocobalamin-b-ethyl-PAMA-OEt [Example 10] | TCII non-binders | − | 0.1 %ID/g | 1.36 %ID/g | 0.73 %ID/g | 1.45 | five times or more than in blood | at least half the amount found in the critical organs kidney and liver |  | 
6 | Cyanocobalamin-b-ethyl-Triamine [Example 22] | TCII non-binders | − | 0.25 %ID/g | 3.54 %ID/g | 2.9 %ID/g | 3.90 | five times or more than in blood | at least half the amount found in the critical organs kidney and liver |  | 
7 | Cyanocobalamin-b-hexyl-PAMA-OEt [Example 14] | bind to TCII | + (they bind to TCII) | 1.2 %ID/g | 40 %ID/g | 3 %ID/g | 8.00 |  |  |  | 
8 | Cyanocobalamin-b-propyl-His-OMe [Example 20] | bind to TCII | + (they bind to TCII) | 2.1 %ID/g | 19.9 %ID/g | 9.2 %ID/g | 21.06 |  |  |  | 
9 | Cyanocobalamin-b-propyl-PAMA-OEt [Example 11] | essentially a TCII-non binder; also recorded: TCII non-binders | − | 0.09 %ID/g | 0.39 %ID/g | 1.61 %ID/g | 0.44 | five times or more than in blood | at least half the amount found in the critical organs kidney and liver | 1.5 kDa | 44 kDa
10 | Cyanocobalamin-c-butyl-PAPAcet [Example 8] | bind to TCII | + (they bind to TCII) | 2.2 %ID/g | 16.5 %ID/g | 3.6 %ID/g | 8.10 |  |  |  | 
11 | Cyanocobalamin-d-propyl-PAMA-OEt [Example 18] | TCII non-binders | − | 0.06 %ID/g | 10.4 %ID/g | 6.8 %ID/g | 3.90 | five times or more than in blood | at least half the amount found in the critical organs kidney and liver |  | 
